The text below walks through data of PMC8131363 (Scientific Reports, 2021).

Where two headings read alike, the source gives them in different places. Starred links: 1 amine or outer side, 2 acyl side, 3 side chain; linkers in the order of their positions; H or OH if unused. Non-standard residues stand in square brackets, D forms with d. No end group written: not given here. βAsp = O=C(O)[C@H](CC(=O)[*:2])N[*:1] Where only a bound is given, the exact number is not on record here.

The target of test [1] is domestic cat Calcium Sensing Receptor (cCaSR) (Felis catus).
Test [2] concerns the target T1, cCaSR (Felis catus, UniProt C7FF08).
T1 sequence (C7FF08 1-1081): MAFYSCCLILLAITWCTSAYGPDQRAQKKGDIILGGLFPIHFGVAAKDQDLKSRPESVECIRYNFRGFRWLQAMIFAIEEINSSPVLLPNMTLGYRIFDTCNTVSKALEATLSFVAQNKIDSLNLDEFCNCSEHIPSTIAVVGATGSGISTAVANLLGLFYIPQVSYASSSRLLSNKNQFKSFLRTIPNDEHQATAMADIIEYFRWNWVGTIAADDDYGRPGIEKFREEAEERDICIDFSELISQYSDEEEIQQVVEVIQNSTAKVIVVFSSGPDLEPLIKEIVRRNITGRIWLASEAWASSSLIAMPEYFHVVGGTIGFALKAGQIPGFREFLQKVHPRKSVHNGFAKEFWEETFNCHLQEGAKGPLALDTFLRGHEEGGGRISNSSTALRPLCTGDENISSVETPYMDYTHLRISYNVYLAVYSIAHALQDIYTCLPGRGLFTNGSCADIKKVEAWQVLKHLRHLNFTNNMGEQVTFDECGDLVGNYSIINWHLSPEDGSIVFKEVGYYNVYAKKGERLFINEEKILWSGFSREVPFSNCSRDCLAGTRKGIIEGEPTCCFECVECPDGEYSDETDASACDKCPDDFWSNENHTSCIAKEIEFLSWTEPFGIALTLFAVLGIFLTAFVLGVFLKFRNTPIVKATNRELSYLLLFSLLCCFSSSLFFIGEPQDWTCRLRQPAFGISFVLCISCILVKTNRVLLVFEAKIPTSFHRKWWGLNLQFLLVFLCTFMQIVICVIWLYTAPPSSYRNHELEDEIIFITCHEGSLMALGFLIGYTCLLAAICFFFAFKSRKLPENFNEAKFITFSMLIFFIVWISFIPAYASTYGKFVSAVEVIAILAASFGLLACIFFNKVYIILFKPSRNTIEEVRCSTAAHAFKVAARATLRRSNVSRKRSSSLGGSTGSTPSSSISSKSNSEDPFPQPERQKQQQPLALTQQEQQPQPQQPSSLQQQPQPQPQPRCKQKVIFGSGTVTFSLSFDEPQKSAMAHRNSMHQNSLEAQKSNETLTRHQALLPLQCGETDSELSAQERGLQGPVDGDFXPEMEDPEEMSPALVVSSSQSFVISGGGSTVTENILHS
Conditions: for EC50: agonist assay.

In test [3] the target is T1, cCaSR. In words: cCaSR PAM luminescence assay, double injection with 0.5 mM CaCl2, HEK293/T-REx/natClytin-cCaSR. The note with it: Supplementary Table I, PAM assay, dash = no activity.
Protocol: The cCaSR expression constructs were stably-transfected in the mammalian cell line, HEK293/ T-REx/ natClytin. Transfections were performed by electroporation, following standard methodologies. Stably-transfected target and mock pools were obtained after 2–3 weeks of antibiotic selection, and clones were selected for testing. In order to evaluate the activity of each clone, 10 mM Calcium was injected onto the cells and the resulting luminescence was measured.
All compounds screened on the receptor were analysed in parallel with Calcium, on the HEK293/ T-REx/ natClytin-cCaSR or hCaSR stable or transient cell lines. Prior to the measurements, the cells were incubated with 10 µM of photoprotein substrate, Coelenterazine, prepared in Calcium-free Tyrode’s buffer at 37 °C for 3–4 h. All the data was captured using a FLIPR Tetra (Molecular Devices). A single or double injection protocol was used to capture the data for potential agonists and PAMs, respectively. The compounds tested were all prepared at desired concentration in Calcium-Free Tyrode’s buffer supplemented with 0.5% DMSO. For the activity determination of potential agonists, the single injection protocol was used, with CaCl2 as the positive control for each run. Each compound was injected into specific wells and the luminescence signal was measured for 1 min. for each compound. For potential PAMs, the double injection protocol was used. The first injection was identical to the one described above for potential agonists. A 20 min. resting period followed the first injection and a second injection of 0.5 mM CaCl2 in Calcium-free Tyrode’s buffer was injected to all wells, and the resulting luminescence signal was again measured for 1 min for each compound.
The half maximal effective concentrations (EC50) were identified by nonlinear regression using a variable slope model with the equation Y = Bottom + (X^Hillslope)*(Top–Bottom)/ (X^HillSlope + EC50^HillSlope), where Y is the agonist concentration, Top and Bottom are the plateaus in the same units as Y and HillSlope is the Slope factor or Hill slope. All calculations and plots were done using GraphPad Prism 8. […] In these cases the EC50 was noted as being higher than the maximum concentration used in the assay.
For test [4], the target named is T1, cCaSR. In words: cell-based.
A further test has as its target T2, hCaSR (Homo sapiens, UniProt P41180).
T2 construct: expressed in transfected cells; host or cells: HEK293/natClytin (transient, pcDNA6 as delivered by GeneArt)
T2 sequence (P41180 20-1078): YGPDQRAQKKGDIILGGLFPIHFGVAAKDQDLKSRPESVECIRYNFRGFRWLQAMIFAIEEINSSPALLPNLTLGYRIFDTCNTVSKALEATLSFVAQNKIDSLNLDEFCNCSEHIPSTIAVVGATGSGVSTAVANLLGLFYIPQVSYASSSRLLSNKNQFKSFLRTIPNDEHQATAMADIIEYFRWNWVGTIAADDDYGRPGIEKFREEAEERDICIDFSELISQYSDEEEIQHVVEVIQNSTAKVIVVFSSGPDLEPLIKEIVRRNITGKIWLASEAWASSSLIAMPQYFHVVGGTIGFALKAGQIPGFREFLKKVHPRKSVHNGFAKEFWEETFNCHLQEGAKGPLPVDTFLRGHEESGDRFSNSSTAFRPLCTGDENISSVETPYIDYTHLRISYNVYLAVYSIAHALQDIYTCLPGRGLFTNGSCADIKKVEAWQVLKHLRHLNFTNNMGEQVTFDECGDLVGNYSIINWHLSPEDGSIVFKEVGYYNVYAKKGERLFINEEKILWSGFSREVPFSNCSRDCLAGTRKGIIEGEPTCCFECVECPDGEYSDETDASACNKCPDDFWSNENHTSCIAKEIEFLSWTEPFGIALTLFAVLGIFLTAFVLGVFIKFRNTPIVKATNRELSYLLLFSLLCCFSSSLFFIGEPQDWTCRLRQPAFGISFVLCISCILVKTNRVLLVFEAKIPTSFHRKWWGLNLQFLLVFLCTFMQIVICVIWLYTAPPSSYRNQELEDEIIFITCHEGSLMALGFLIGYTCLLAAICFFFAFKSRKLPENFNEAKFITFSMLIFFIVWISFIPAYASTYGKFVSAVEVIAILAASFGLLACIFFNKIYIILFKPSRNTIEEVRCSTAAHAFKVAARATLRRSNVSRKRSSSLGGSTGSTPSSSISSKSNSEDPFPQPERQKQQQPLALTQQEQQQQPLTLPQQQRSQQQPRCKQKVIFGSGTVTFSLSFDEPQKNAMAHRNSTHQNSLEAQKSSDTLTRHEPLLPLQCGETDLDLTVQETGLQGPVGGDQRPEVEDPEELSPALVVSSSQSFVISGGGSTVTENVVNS
Briefly: hCaSR transiently expressed in HEK293/natClytin, agonist luminescence assay. In kind it is cell-based. The note with it: transiently expressed hCaSR; for EC50: > 3 mM = maximal response not reached, read-out: hCaSR EC50. The protocol: (§1) The coding sequence of the Felis catus[52] and Homo sapiens[53] CaSR gene was synthesised by GeneArt (Thermo Fisher Scientific). The cat coding sequence was excised from the GeneArt construct and inserted in pcDNA3.1 for constitutive and transient expression or pcDNA5/ TO for inducible expression. For the human sequence the pcDNA6 vector as delivered by GeneArt was used without further sub-cloning.
(§2) All transient transfections were performed with Lipofectamine 2000 (Invitrogen) according to the manufacturer’s protocol.

The target in test [5] is T1, cCaSR. In words: cCaSR transiently expressed in HEK293/natClytin, agonist luminescence assay. In kind it is cell-based. Conditions: transiently expressed cCaSR; for EC50: > 3 mM = maximal response not reached, read-out: cCaSR EC50. The protocol:
as §1, §2

Setting [6] is: cCaSR activity, agonist assay, stable inducible cCaSR line, at least three wells.
[7] abbreviates: cCaSR stable EC50(mM), stably expressed cCaSR, Fig. 6b, > 3 mM = maximal response not reached.
Where [8] appears, read: EC50 (M), agonist assay, stable inducible cCaSR line, > 0.01 M = maximal response not reached.
Setting [9] is: EC50 Ago (M), Supplementary Table I, agonist assay, > 0.01 M = maximal response not reached.

Consider 3-Glutathionyl-S-methylindole (peptide), for which the EC50 of agonist activity, luminescence (natClytin) in HEK T-Rex/natClytin cells inducibly expressing cCaSR, calcium-free buffer; activity grade ++ in test [1] was 3.74 mM.

Take `N[C@@H](Cc1ccc(OP(=O)(O)O)cc1)C(=O)O` [O-Phospho-L-tyrosine]: the “agonist activity on cCaSR (in words)” value at cCaSR [2] is reported as “agonist activity”. Further, the “EC50 PAM (M)” value at cCaSR [3] is on record as “-”. Besides, the EC50 at cCaSR [4] (setting [6]) was > 10 mM.

Regarding `NCCCCN` [Putrescine], the EC50 on hCaSR, at cCaSR [5] and on cCaSR [4] (setting [7]) was > 3 mM throughout.

With `C[Se]C[C@H](N)C(=O)O` [Se-(Methyl)selenocysteine], the “agonist activity on cCaSR (in words)” value at cCaSR [2] is given as “agonist activity”. Also, the “EC50 PAM (M)” value on cCaSR [3] is listed as “-”. Moreover, the EC50 on cCaSR [4] (setting [8]) is 4.47 mM; on cCaSR [4] (setting [9]), 4.47 mM; at cCaSR [4] (setting [6]), 1 to 10 mM.

For `CC[C@H](NC(=O)CC[C@H](N)C(=O)O)C(=O)NCC(=O)O` [γ-Glu-Abu-Gly], the EC50 is > 3 mM at hCaSR; > 3 mM at cCaSR [5]; 2.65 mM at cCaSR [4] (setting [8]); 1 to 10 mM on cCaSR [4] (setting [6]); > 3 mM at cCaSR [4] (setting [7]). Further, the “EC50 PAM (M)” value on cCaSR [3] is recorded as “-”.

On to `C[C@H](NC(=O)CC[C@H](N)C(=O)O)C(=O)O` [γ-Glu-Ala], for which the EC50 at hCaSR was > 3 mM; at cCaSR [5], > 3 mM; at cCaSR [4] (EC50 Value (heat map Fig. 5), cCaSR agonists, heat map), 2.95 mM; at cCaSR [4] (setting [6]), > 10 mM; on cCaSR [4] (setting [7]), > 3 mM. The “EC50 PAM (M)” value at cCaSR [3] is recorded as “-”.

`CC(C)[C@H](NC(=O)CC[C@H](N)C(=O)O)C(=O)NCC(=O)O` [γ-Glu-Val-Gly]: the EC50 was 4.1 mM at hCaSR, 3.6 mM on cCaSR [5], 4.22 mM at cCaSR [4] (setting [8]) and 6.9 mM on cCaSR [4] (setting [7]). In addition, at cCaSR [3], the “EC50 PAM (M)” value was “-”.

For the molecule `CC(C)[C@H](NC(=O)CC[C@H](N)C(=O)O)C(=O)O` [γ-Glu-Val], the EC50 is > 3 mM at hCaSR; > 3 mM at cCaSR [5]; 4.52 mM on cCaSR [4] (setting [8]); 4.52 mM on cCaSR [4] (setting [9]); 1 to 10 mM at cCaSR [4] (setting [6]); > 3 mM on cCaSR [4] (setting [7]). Also, the “EC50 PAM (M)” value on cCaSR [3] is “-”.

Turning to Glutathione (peptide), the EC50 of agonist activity, luminescence (natClytin) in HEK T-Rex/natClytin cells inducibly expressing cCaSR, calcium-free buffer; activity grade ++ in test [1] was 6.39 mM.

Take Poly-L-arginine: the “hCaSR EC50” value at hCaSR was found to be 2.5 µg/mL. The “cCaSR stable EC50” value at cCaSR [2] was 8.0 µg/mL. For the same molecule, the EC50 at cCaSR [2] (stable inducible cCaSR line, > 0.01 M = maximal response not reached) was 0.00101 mM; on cCaSR [2] (read-out: EC50 Ago, Supplementary Table I, > 0.01 M = maximal response not reached) it was 0.00101 mM; at cCaSR [2] (read-out: cCaSR activity, stable inducible cCaSR line, at least three wells) it was < 1 mM. For the same molecule, the “EC50 PAM (M)” value on cCaSR [3] is reported as “-”. The “cCaSR EC50” value on cCaSR [5] was 2.9 µg/mL.

Turning to Poly-L-lysine (peptide), in test [1], the EC50 of agonist activity, luminescence (natClytin) in HEK T-Rex/natClytin cells inducibly expressing cCaSR, calcium-free buffer; activity grade + is > 10 mM.

In the case of S-(2-Hydroxyethyl)glutathione (peptide), in test [1], the EC50 of agonist activity, luminescence (natClytin) in HEK T-Rex/natClytin cells inducibly expressing cCaSR, calcium-free buffer; activity grade ++ was found to be 2.11 mM.

As for S-Lactoylglutathione (peptide), in test [1], the EC50 of agonist activity, luminescence (natClytin) in HEK T-Rex/natClytin cells inducibly expressing cCaSR, calcium-free buffer; activity grade + was > 10 mM.

Regarding S-Methylglutathione (peptide), the EC50 of agonist activity, luminescence (natClytin) in HEK T-Rex/natClytin cells inducibly expressing cCaSR, calcium-free buffer; activity grade ++ in test [1] is 4.42 mM.

On to [βAsp]-Ala, for which the EC50 of agonist activity, luminescence (natClytin) in HEK T-Rex/natClytin cells inducibly expressing cCaSR, calcium-free buffer; activity grade + in test [1] is > 10 mM.

In the case of [βAsp]-Gly, the EC50 of agonist activity, luminescence (natClytin) in HEK T-Rex/natClytin cells inducibly expressing cCaSR, calcium-free buffer; activity grade + in test [1] is > 10 mM.

Take [βAsp]-Leu: the EC50 of agonist activity, luminescence (natClytin) in HEK T-Rex/natClytin cells inducibly expressing cCaSR, calcium-free buffer; activity grade + in test [1] came to 3.15 mM.
